Results taken from patent publication US4289876A, “Antisecretory agents” (Bristol-Myers Company, priority 1980, dated 1981).

Tests used:
[1] = target: T1, histamine H2-receptor (Cavia porcellus, UniProt P47747); experiment: Histamine H2-receptor antagonism, isolated guinea pig right atria assay (displacement of histamine concentration-response curve for atrial rate)
T1 construct: The spontaneously beating right atrium was dissected free from other tissues; from tissue; host or cells: isolated spontaneously beating right atrium of male Hartley guinea pigs
Experimental: Subsequent investigations by Hughes and Coret, Proc. Soc. […] Black et al., Agents and Actions, 3, 133 (1973) and Brimblecombe et al., Fed. […] The present comparative studies were carried out using a modification of the procedure reported by Reinhardt et al., Agents and Actions, 4, 217 (1974).
Male Hartley strain guinea pigs (350-450 gm.) were sacrificed by a blow on the head. The heart was excised and placed in a Petri dish of oxygenated (95% O2, 5% CO2) modified Krebs solution (g./liter: NaCl 6.6, KCl 0.35, MgSO4.7 H2 O 0.295, KH2 PO4 0.162, CaCl2 0.238, NaHCO3 2.1 and dextrose 2.09). The spontaneously beating right atrium was dissected free from other tissues and a silk thread (4-0) attached to each end. The atrium was suspended in a 20 ml. muscle chamber containing oxygenated modified Krebs solution maintained at 32° C. Atrial contractions were recorded isometrically be means of a Grass FT 0.03 force displacement transducer and recordings of contractile force and rate were made with Beckman RP Dynograph.
A resting tension of 1 g. was applied to the atrium and it was allowed to equilibrate for 1 hour.
Concentration-response curve displacement factors were calculated as follows: [formula] […] [formula]

[2] = tested on: histamine H2-receptors; conditions: Black et al., Nature 1972; cited from earlier work
[3] = in vivo; cited from earlier work
[4] = tested on: H2-receptor; conditions: cited from earlier work
[5] = cited from earlier work
[6] = tested on: peptic ulcer disease; conditions: clinical evaluation, Gray et al., Lancet 1977; cited from earlier work
[7] = histamine ED50 after 30 minute incubation with test compound at 3 × 10^-5 M

T1 sequence (P47747 whole entry): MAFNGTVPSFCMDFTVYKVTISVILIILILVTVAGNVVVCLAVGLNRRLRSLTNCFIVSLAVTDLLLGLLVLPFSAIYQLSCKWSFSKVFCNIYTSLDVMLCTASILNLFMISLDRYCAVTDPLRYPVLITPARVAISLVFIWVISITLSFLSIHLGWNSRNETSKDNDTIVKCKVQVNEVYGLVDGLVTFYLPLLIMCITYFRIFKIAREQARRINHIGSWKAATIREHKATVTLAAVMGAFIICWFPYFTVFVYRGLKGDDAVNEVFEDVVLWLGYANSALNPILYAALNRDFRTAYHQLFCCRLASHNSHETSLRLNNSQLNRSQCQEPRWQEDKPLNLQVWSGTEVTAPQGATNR

For `C#CCNC(=NCCSCc1ncccc1Cl)NC#N` [BL-6083, N-Cyano-N'-(2-propyn-1-yl)-N"-{2-[(3-chloro-2-pyridyl)methylthio]ethyl}guanidine], the “potency/activity relative to cimetidine as a histamine H2-receptor antagonist” value ([1]; based on displacement factors) was 8.19 times and the “Histamine ED50 With 95% Confidence Limits” value [1, 7] was 57.92 µg/mL.
For `CNC(=S)NCCCCc1cnc[nH]1` [Burimamide], the “mode of antagonism at histamine H2-receptors” value [2] is given as “competitive antagonist” and the oral absorption [3] is given as “oral absorption is poor”.
In the case of `C#CCNC(=C[N+](=O)[O-])NCCSCc1ncccc1Cl` [BL-6075, 1-Nitro-2-(2-propynylamino)-2-{2-[(3-chloro-2-pyridyl)methylthio]ethylamino}ethylene], the “Activity Ratio Relative to Cimetidine” value ([1]; Table 1, ratio of displacement factors, 3 × 10^-5 M) is reported as 2.09 and the “Histamine ED50 With 95% Confidence Limits” value [1, 7] is reported as 20.97 µg/mL.
For `C/N=C(\S)NCCSCc1[nH]cnc1C` [Metiamide], the “potency/effectiveness as H2 antagonist vs. earlier compound” value [4] is given as “more potent than burimamide” and the “oral activity in man” value [5] is given as “orally active in man”.
For `CN/C(=N/CCSCc1nc[nH]c1C)NC#N` [Cimetidine], the “potency/effectiveness as H2 antagonist vs. earlier compound” value [4] is listed as “as effective an H2 antagonist as metiamide”, the “efficacy in treatment of peptic ulcer disease” value [6] is listed as “effective therapeutic agent in the treatment of peptic ulcer disease” and the “Histamine ED50 With 95% Confidence Limits” value [1, 7] is listed as 4.80 µg/mL. For the same compound, the “Concentration-Response Curve Displacement Factor” value ([1]; test compound 3 × 10^-5 M, rightward displacement of histamine curve) was 25.26.
For `NCCc1c[nH]cn1` [Histamine], the “Histamine ED50 With 95% Confidence Limits” value ([1]; histamine control before BL-6075, N=3) was 0.39 µg/mL and the “concentration of maximal response (atrial rate)” value ([1]; histamine, cumulative addition) was 30 µM.
